The values below come from PMC10208570, “Peptidomimetic antibiotics disrupt the lipopolysaccharide transport bridge of drug-resistant Enterobacteriaceae” (Science Advances, 2023).

Each structure is given as a SMILES string. Where a SMILES comes first, the peptide text is derived from it. Bridges are numbered along the chain shown (N, C = ends). [ ]: non-standard residue; d: D form. The star is where a group is joined. X1 = CC1(CCCCS(=O)(=O)O)C(/C=C/C=C/C=C2/N(CCCS(=O)(=O)O)c3ccc(S(=O)(=O)O)cc3C2(C)C)=[N+](CCCCCC(=O)NCc2cn(CCOCCOCCOCCOCCC(=O)*)nn2)c2ccc(S(=O)(=O)[O-])cc21; Hyp = O=C(O)[C@@H]1C[C@@H](O)CN1; Pen = CC(C)(S)[C@H](N)C(=O)O; dDab = NCC[C@@H](N)C(=O)O; Dab = NCC[C@H](N)C(=O)O

One may read the Kd as the constant that tells how readily two partners part at equilibrium. The IC50 is the concentration at which inhibition is half-maximal. A lower IC50 goes with greater potency in that assay.

One series has as its target T1, LptAmD33A (Escherichia coli, UniProt P0ADV1, D33A).
T1 construct: His6-GB1 (N, cleaved yes); made in house; host or cells: E. coli BL21 (DE3)
The series is described as follows: FP direct binding assay. Also noted: species or system E. coli.

In a further series the target is T2, mLptAQ62L (Escherichia coli, UniProt P0ADV1, E39V/M47A/Q62L/R76A).
T2 construct: the LptA25–185 mutant E39V M47A R76A was selected as the best candidate; His6-GB1 (N, cleaved yes); made in house; host or cells: E. coli BL21 (DE3)
T2 sequence (P0ADV1 25-185 E39V/M47A/Q62L/R76A): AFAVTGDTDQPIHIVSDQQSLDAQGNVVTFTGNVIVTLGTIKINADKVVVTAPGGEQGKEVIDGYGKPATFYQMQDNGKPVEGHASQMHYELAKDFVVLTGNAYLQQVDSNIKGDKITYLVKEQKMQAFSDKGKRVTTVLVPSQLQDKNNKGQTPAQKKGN
Put plainly: biochemical. The series is classed as binding, E. coli. The protocol:
(§1) Protein stocks were purified and concentrated in buffer 1 [50 mM Na-Pi (pH 7) and 150 mM NaCl] and, if necessary, diluted to desired concentrations using buffer 2 [50 mM Na-Pi (pH 7), 150 mM NaCl, and 0.05% Tween 20]. Peptide stocks and fluorescently labeled peptide stocks were made in buffer 2. Every serial dilution consisted of 24 wells, the first well with the highest concentrate and the last well (well 24) with the lowest. First, 50 μl of buffer 2 was added to the wells 2 to 24 of each serial dilution. Then, 100 μl of concentrated unlabeled peptide/protein in their respective buffers was added to the first well. […] Anisotropy was measured using the Tecan Safire2 plate reader using a 10-nm bandwidth and setting the excitation and emission wavelengths to 635 and 670 nm, respectively. The G-factor (G) was also determined empirically as 1.094 for the instrument and included in all the anisotropy calculations.
(§2) For direct binding assays, fluorescence anisotropy (r) was calculated using the parallel and perpendicular polarized intensities (I) by the equation r=I∥−I⊥∗G/I∥+2I⊥∗G
(§3) Anisotropy for the blank, the fluorescently labeled peptide only (6-FL only), was measured and subtracted from r to yield r′. […] A nonspecific binding factor (NS) was determined using a linear regression model (y = NS ∗ X + b) at the highest concentrations and incorporated into the fit.

Series [1] deals with T3, mLptA (Escherichia coli, UniProt P0ADV1, E39V/M47A/R76A).
T3 construct: the LptA25–185 mutant E39V M47A R76A was selected as the best candidate; His6-GB1 (N, cleaved yes); made in house; host or cells: E. coli BL21 (DE3)
T3 sequence (P0ADV1 25-185 E39V/M47A/R76A): as the sequence (P0ADV1 25-185 E39V/M47A/Q62L/R76A) above, with L38Q counted along it
Put plainly: biochemical. The series is classed as binding, E. coli. The protocol:
as §1, §2, §3

Series [2] deals with T4, LptAmQ62L (Escherichia coli, UniProt P0ADV1, Q62L).
T4 construct: His6-GB1 (N, cleaved yes); made in house; host or cells: E. coli BL21 (DE3)
T4 sequence (P0ADV1 28-159 Q62L): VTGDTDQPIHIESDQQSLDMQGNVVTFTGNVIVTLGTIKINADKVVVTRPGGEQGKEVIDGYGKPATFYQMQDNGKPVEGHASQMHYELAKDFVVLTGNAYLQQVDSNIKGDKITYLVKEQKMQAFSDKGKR
Put plainly: FP direct binding assay. Set-up: species or system E. coli.

Series [3] has as its target T5, LptAm (Escherichia coli, UniProt P0ADV1).
T5 construct: His6-GB1 (N, cleaved yes); made in house; host or cells: E. coli BL21 (DE3)
Put plainly: FP direct binding assay. Set-up: species or system E. coli.

The target of the next series is T6, LptAmQ62L, D33A (Escherichia coli, UniProt P0ADV1, D33A/Q62L).
T6 construct: His6-GB1 (N, cleaved yes); made in house; host or cells: E. coli BL21 (DE3)
T6 sequence (P0ADV1 28-159 D33A/Q62L): as the sequence (P0ADV1 28-159 Q62L) above, with D6A counted along it
Put plainly: FP direct binding assay. Also noted: species or system E. coli.

Series [4] has as its target mLptA. As to conditions: read-out: Kd ± 95CI, K. pneumoniae mLptA; FP direct binding of 6-FL; triplicates; ± 95% CI of fit. The protocol: (§4) Protein stocks were purified and concentrated in buffer 1 [50 mM Na-Pi (pH 7) and 150 mM NaCl] and, if necessary, diluted to desired concentrations using buffer 2 [50 mM Na-Pi (pH 7), 150 mM NaCl, and 0.05% Tween 20]. Peptide stocks and fluorescently labeled peptide stocks were made in buffer 2. Every serial dilution consisted of 24 wells, the first well with the highest concentrate and the last well (well 24) with the lowest. First, 50 μl of buffer 2 was added to the wells 2 to 24 of each serial dilution. Then, 100 μl of concentrated unlabeled peptide/protein in their respective buffers was added to the first well. Fifty microliters were taken from the first well and added to the second well for a 1:1 serial dilution and continued for the 24 wells. […] Plates were covered with adhesive seals and left to incubate overnight at 4°C before FP measurements the next day. Anisotropy was measured using the Tecan Safire2 plate reader using a 10-nm bandwidth and setting the excitation and emission wavelengths to 635 and 670 nm, respectively. The G-factor (G) was also determined empirically as 1.094 for the instrument and included in all the anisotropy calculations.
as §2
(§5) Anisotropy for the blank, the fluorescently labeled peptide only (6-FL only), was measured and subtracted from r to yield r′. The r′ data were normalized and fit to the One site − Total model on GraphPad Prism 9. A nonspecific binding factor (NS) was determined using a linear regression model (y = NS ∗ X + b) at the highest concentrations and incorporated into the fit.

Series [5] has as its target LptAm. As to conditions: read-out: Kd ± 95CI, K. pneumoniae LptAm; FP direct binding of 6-FL; triplicates; ± 95% CI of fit. The protocol: as §4, §2, §5
Series [6] addresses LptAmQ62L. As to conditions: read-out: Kd ± 95CI, K. pneumoniae LptAmQ62L; FP direct binding of 6-FL; triplicates; ± 95% CI of fit. The protocol:
as §4, §2, §5

In series [7] the test system is E. coli ATCC 25922 (parent / WT). Put plainly: microbe, parasite or virus in culture. As to conditions: CLSI method; parent strain. In outline: (§6)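 Following CLSI procedures, minimum inhibitory concentrations are measured; serial passage experiments select resistant mutants, whose MICs are determined before whole-genome sequencing and bioinformatic analysis.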
Series [8] deals with E. coli ATCC 25922 LptA Q62L mutant. Put plainly: microbe, parasite or virus in culture. As to conditions: CLSI method; clone harboring LptA Q62L. In outline:
as §6

Another series relates to human red blood cells. Put plainly: Haemolysis. As to conditions: PBS-washed human red blood cells; 1 h at 200 mg/liter, 37°C; OD 540 nm; versus 100% lysis control 2.5% Triton X-100; biological replicates. The series is classed as cell-based. As to the method:
To test their hemolytic potential, compounds were incubated in the presence of phosphate-buffered saline (PBS)–washed human red blood cells. After 1-hour incubation at 200 mg/liter and 37°C, the samples were centrifuged (3220g), the supernatants were diluted in Dulbecco’s PBS, and optical density at 540 nm was determined. The hemolysis induced by the compound was calculated versus a 100% lysis control prepared with 2.5% Triton X-100 (table S4A).

The next series has as its system HeLa cells. The series is described as follows: in vitro. The series is classed as cell-based. The protocol: (§7) The cytotoxicity of compounds was determined by determining the number of viable cells using the Sigma Cell Counting Kit-8 (WST-8). HeLa cells were incubated at 37°C and 5% CO2 for 24 hours, after which the medium was replaced with fresh medium containing dilutions of compounds. […]

The next series can be described thus: in vitro. The series is classed as cell-based. As to conditions: human. As to the method: as §7
Series [9] has as its system K. pneumoniae 968733 (CST-R). Put plainly: MIC assay (CLSI). Format: cell-based, Klebsiella pneumoniae. As to conditions: CLSI method; colistin-resistant strain. The protocol: MIC assays [Clinical and Laboratory Standards Institute (CLSI) methodology] and serial passage studies were performed as described by Luther et al. ([6]). […] Resistant mutants were isolated, and their MIC values were determined and sent to Microbes NG (Birmingham, United Kingdom) for whole-genome sequencing and bioinformatic analysis.

T1 sequence (P0ADV1 28-159 D33A): as the sequence (P0ADV1 28-159 Q62L) above, with D6A, L35Q counted along it
T5 sequence (P0ADV1 28-159): as the sequence (P0ADV1 28-159 Q62L) above, with L35Q counted along it

Regarding `CC[C@H](C)[C@H](NC(=O)[C@@H]1C[C@@H](O)CN1C(=O)[C@@H](N)C(C)C)C(=O)N[C@H](C(=O)N[C@@H](Cc1ccc(O)cc1)C(=O)N[C@@H]1C(=O)N[C@@H](CC(N)=O)C(=O)N[C@@H](CCCNC(=N)N)C(=O)N[C@@H](CCN)C(=O)N[C@@H](CCCCNC(=O)CCOCCOCCOCCOCCn2cc(CNC(=O)CCCCC[N+]3=C(/C=C/C=C/C=C4/N(CCCS(=O)(=O)O)c5ccc(S(=O)(=O)O)cc5C4(C)C)C(C)(CCCCS(=O)(=O)O)c4cc(S(=O)(=O)[O-])ccc43)nn2)C(=O)N[C@H](CCN)C(=O)N[C@@H](CCCCN)C(=O)N[C@H](C(=O)N[C@@H](CCN)C(=O)N[C@@H](CCCNC(=N)N)C(=O)N[C@@H](Cc2ccc(O)cc2)C(=O)O)CSSC1(C)C)[C@@H](C)O` (stereo partly drawn) [6-FL] (H-V[Hyp]ITY[Pen]NR[Dab]K(X1)[dDab]KC[Dab]RY-OH; disulfide 6-13), the Kd at LptAmD33A is 13.8 ± 8.2 nM; on mLptAQ62L, 8140 ± 1180 nM; on mLptA [1], 968 ± 191 nM; on LptAmQ62L [2] it was 73.3 ± 21.3 nM; at LptAm [3] it was 6.9 ± 1.7 nM; at LptAmQ62L, D33A, 82.4 ± 10.3 nM. Also, the results for the Kd at mLptA [4], on LptAm [5] and on LptAmQ62L [6] were 453 ± 29.3 nM, 3.7 ± 0.9 nM and 242 ± 45.1 nM, respectively.
`CC[C@H](C)[C@H](NC(=O)[C@@H](NC(=O)[C@@H]1CCCN1C(=O)[C@@H](N)C(C)C)[C@@H](C)CC)C(=O)N[C@@H](Cc1ccc(O)cc1)C(=O)N[C@@H]1C(=O)N[C@@H](CC(N)=O)C(=O)N[C@@H](CCCNC(=N)N)C(=O)N[C@@H](CCN)C(=O)N[C@@H]([C@@H](C)O)C(=O)N[C@H](CCN)C(=O)N[C@@H](CCCCN)C(=O)N[C@H](C(=O)N[C@@H](CCN)C(=O)N[C@@H](CCCNC(=N)N)C(=O)N[C@@H](Cc2ccc(O)cc2)C(=O)O)CSSC1(C)C` [Compound 3] (H-VPIIY[Pen]NR[Dab]T[dDab]KC[Dab]RY-OH; disulfide 6-13): in [7], the “MIC E. coli ATCC 25922 Parent” value amounted to 0.063 micrograms per milliliter. Besides, in [8], the “MIC E. coli ATCC 25922 Q62L mutant” value came out at 1 micrograms per milliliter. Further, in the series with human red blood cells, the “Haemolysis % at 0.2 g/L” value was found to be 0%. In the series on HeLa cells, the IC50 came to 40000 nM. Also, the IC50 at 48 h in “in vitro” was determined as 41000 nM. Besides, in [9], the “MIC K. pneumoniae 968733 (CST-R) Parent” value worked out at 0.25 micrograms per milliliter.
